Test results reported in US9738634B2, “Heterocyclic amide compound and herbicide” (SYNGENTA PARTICIPATIONS AG, priority 2013, dated 2017).

Columns and labels:
Format in all cases: in vivo
directly sown rice = assay: Test Example 3: soil treatment, effect on crop; b: directly sown rice; settings: soil treatment, treatment dosage 315 g/ha
Description: (§1) Weedkilling Efficacy Test Through Soil Treatment
(§2) Sterilized diluvial soil was introduced into 21 cm long, 13 cm wide, 7 cm deep plastic boxes, and seeds of crabgrass, green foxtail, barnyard grass, wild oat, black-grass, Italian ryegrass, common wind-grass, Indian mallow, redroot pigweed, fig-leafed goosefoot, chickweed, catchweed, birds-eye speedwell, corn, soybean, rice, wheat, beet and rapeseed were each spot-sown, and covered with about 1.5 cm of soil. Next, emulsions of compounds of the present invention prepared according to compounding example 2 were diluted with water to give the specified dosages, and applied uniformly onto the soil surface with a small sprayer. The plants were grown by placing the plastic boxes in a greenhouse at 25 to 30° C., and 3 weeks after the pesticide treatment the effect on each type of plant was investigated on the basis of the assessment criteria of test example 1.
(§3) A: barnyard grass, B: bulrush, C: oval-leafed pondweed, D: crabgrass, E: green foxtail, F: barnyard grass, G: wild oat, H: black-grass, I: Italian ryegrass, J: common wind-grass, K: Indian mallow, L: redroot pigweed, M: fig-leafed goosefoot, N: chickweed, O: catchweed, p: birds-eye speedwell, a: transplanted rice, b: directly sown rice, c: corn, d: soybean, e: wheat, f: beet, g: rapeseed
(§4) Further, pesticide dosage (g/ha) indicates the concentration regulated such that treatment was with only the stated number of grams (g), when calculated per hectare (ha).

fig-leafed goosefoot = assay: Test Example 3: weedkilling efficacy through soil treatment; M: fig-leafed goosefoot; settings: soil treatment, treatment dosage 315 g/ha
Description: as §1, §2, §3, §4

Indian mallow = assay: Test Example 3: weedkilling efficacy through soil treatment; K: Indian mallow; settings: soil treatment, treatment dosage 315 g/ha
Description: as §1, §2, §3, §4

green foxtail = assay: Test Example 3: weedkilling efficacy through soil treatment; E: green foxtail; settings: soil treatment, treatment dosage 315 g/ha
Description: as §1, §2, §3, §4

beet = assay: Test Example 3: soil treatment, effect on crop; f: beet; settings: soil treatment, treatment dosage 315 g/ha
Description: as §1, §2, §3, §4

chickweed = assay: Test Example 3: weedkilling efficacy through soil treatment; N: chickweed; settings: soil treatment, treatment dosage 315 g/ha
Description: as §1, §2, §3, §4

oval-leafed pondweed [1] = assay: Test Example 1: weedkilling efficacy, preemergent weed treatment in the submerged state; C: oval-leafed pondweed; settings: treatment dosage 252 g/ha
How it was run: (§5)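 Pots of alluvial soil flooded 4 cm deep, sown with barnyard grass, bulrush and oval-leafed pondweed and transplanted with 2.5-leaf rice. Emulsified compound applied to the water surface on sowing day at stated g/ha; greenhouse 25–30 °C, effects assessed 3 weeks after treatment.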

oval-leafed pondweed [2] = assay: Test Example 2: weedkilling efficacy, growth period weed treatment in the submerged state; C: oval-leafed pondweed; settings: treatment dosage 252 g/ha
How it was run: (§6)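 Barnyard grass, bulrush and oval-leafed pondweed sown in alluvial soil under 4 cm flooding, greenhouse 25 to 30° C. At 1-2 leaf stage, water-diluted emulsion applied to the water surface at stated g/ha dosages; effects scored 3 weeks later.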

soybean = assay: Test Example 3: soil treatment, effect on crop; d: soybean; settings: soil treatment, treatment dosage 315 g/ha
Description: as §1, §2, §3, §4

redroot pigweed = assay: Test Example 3: weedkilling efficacy through soil treatment; L: redroot pigweed; settings: soil treatment, treatment dosage 315 g/ha
Description: as §1, §2, §3, §4

crabgrass = assay: Test Example 3: weedkilling efficacy through soil treatment; D: crabgrass; settings: soil treatment, treatment dosage 315 g/ha
Description: as §1, §2, §3, §4

black-grass = assay: Test Example 3: weedkilling efficacy through soil treatment; H: black-grass; settings: soil treatment, treatment dosage 315 g/ha
Description: as §1, §2, §3, §4

transplanted rice = assay: Test Example 1: preemergent weed treatment in the submerged state, effect on crop; a: transplanted rice; settings: treatment dosage 252 g/ha
How it was run: as §5

wild oat = assay: Test Example 3: weedkilling efficacy through soil treatment; G: wild oat; settings: soil treatment, treatment dosage 315 g/ha
Description: as §1, §2, §3, §4

bulrush [3] = assay: Test Example 1: weedkilling efficacy, preemergent weed treatment in the submerged state; B: bulrush; settings: treatment dosage 252 g/ha
How it was run: as §5

bulrush [4] = assay: Test Example 2: weedkilling efficacy, growth period weed treatment in the submerged state; B: bulrush; settings: treatment dosage 252 g/ha
How it was run: as §6

Italian ryegrass = assay: Test Example 3: weedkilling efficacy through soil treatment; I: Italian ryegrass; settings: soil treatment, treatment dosage 315 g/ha
Description: as §1, §2, §3, §4

corn = assay: Test Example 3: soil treatment, effect on crop; c: corn; settings: soil treatment, treatment dosage 315 g/ha
Description: as §1, §2, §3, §4

barnyard grass [5] = assay: Test Example 2: weedkilling efficacy, growth period weed treatment in the submerged state; A: barnyard grass; settings: treatment dosage 252 g/ha
How it was run: as §6

birds-eye speedwell = assay: Test Example 3: weedkilling efficacy through soil treatment; p: birds-eye speedwell; settings: soil treatment, treatment dosage 315 g/ha
Description: as §1, §2, §3, §4

barnyard grass [6] = assay: Test Example 1: weedkilling efficacy, preemergent weed treatment in the submerged state; A: barnyard grass; settings: treatment dosage 252 g/ha
How it was run: as §5

wheat = assay: Test Example 3: soil treatment, effect on crop; e: wheat; settings: soil treatment, treatment dosage 315 g/ha
Description: as §1, §2, §3, §4

Row | Compound | b: directly sown rice, effect on crop grade (directly sown rice) | M: fig-leafed goosefoot, weedkilling efficacy grade (fig-leafed goosefoot) | K: Indian mallow, weedkilling efficacy grade (Indian mallow) | E: green foxtail, weedkilling efficacy grade (green foxtail) | f: beet, effect on crop grade (beet) | N: chickweed, weedkilling efficacy grade (chickweed) | C: oval-leafed pondweed, weed kill grade (oval-leafed pondweed [1]) | C (oval-leafed pondweed) weedkilling efficacy grade (oval-leafed pondweed [2]) | d: soybean, effect on crop grade (soybean) | L: redroot pigweed, weedkilling efficacy grade (redroot pigweed) | D: crabgrass, weedkilling efficacy grade (crabgrass) | H: black-grass, weedkilling efficacy grade (black-grass) | a: transplanted rice, effect on crop grade (transplanted rice) | G: wild oat, weedkilling efficacy grade (wild oat) | B: bulrush, weed kill grade (bulrush [3]) | B (bulrush) weedkilling efficacy grade (bulrush [4]) | I: Italian ryegrass, weedkilling efficacy grade (Italian ryegrass) | c: corn, effect on crop grade (corn) | P: birds-eye speedwell, weedkilling efficacy grade (birds-eye speedwell) | e: wheat, effect on crop grade (wheat) | also measured
1 | Cc1csc(NC(=O)C(C)(C)N2COCN(c3ccccc3)C2=O)n1 [A-1-05] | 5 (weed kill ratio 90% or more, (practically complete withering)) | 3 (weed kill ratio 40% or more, less than 70%) | 4 (weed kill ratio 70% or more, less than 90%) | 5 (weed kill ratio 90% or more, (practically complete withering)) | 3 (weed kill ratio 40% or more, less than 70%) | 4 (weed kill ratio 70% or more, less than 90%) | 5 (weed kill ratio 90% or more, (practically complete withering)) | 3 (weed kill ratio 40% or more, less than 70%) | 0 (weed kill ratio 5% or less (practically no effect)) | 5 (weed kill ratio 90% or more, (practically complete withering)) | 5 (weed kill ratio 90% or more, (practically complete withering)) | 5 (weed kill ratio 90% or more, (practically complete withering)) | 0 (weed kill ratio 5% or less (practically no effect)) | 4 (weed kill ratio 70% or more, less than 90%) | 5 (weed kill ratio 90% or more, (practically complete withering)) | 5 (weed kill ratio 90% or more, (practically complete withering)) | 5 (weed kill ratio 90% or more, (practically complete withering)) | 1 (weed kill ratio 5% or more, less than 20%) | 5 (weed kill ratio 90% or more, (practically complete withering)) | 0 (weed kill ratio 5% or less (practically no effect)) | A (barnyard grass) weedkilling efficacy grade (barnyard grass [5]): 3 (weed kill ratio 40% or more, less than 70%); A: barnyard grass, weed kill grade (barnyard grass [6]): 5 (weed kill ratio 90% or more, (practically complete withering))
2 | CC(C)(C(=O)Nc1ncc(Cl)s1)N1COCN(c2ccccc2)C1=O [A-1-07] | 5 (weed kill ratio 90% or more, (practically complete withering)) | 4 (weed kill ratio 70% or more, less than 90%) | 4 (weed kill ratio 70% or more, less than 90%) | 5 (weed kill ratio 90% or more, (practically complete withering)) | 5 (weed kill ratio 90% or more, (practically complete withering)) | 4 (weed kill ratio 70% or more, less than 90%) | 5 (weed kill ratio 90% or more, (practically complete withering)) | 5 (weed kill ratio 90% or more, (practically complete withering)) | 1 (weed kill ratio 5% or more, less than 20%) | 5 (weed kill ratio 90% or more, (practically complete withering)) | 5 (weed kill ratio 90% or more, (practically complete withering)) | 5 (weed kill ratio 90% or more, (practically complete withering)) | 0 (weed kill ratio 5% or less (practically no effect)) | 5 (weed kill ratio 90% or more, (practically complete withering)) | 5 (weed kill ratio 90% or more, (practically complete withering)) | 5 (weed kill ratio 90% or more, (practically complete withering)) | 5 (weed kill ratio 90% or more, (practically complete withering)) | 3 (weed kill ratio 40% or more, less than 70%) | 5 (weed kill ratio 90% or more, (practically complete withering)) | 2 (weed kill ratio 20% or more, less than 40%) | A (barnyard grass) weedkilling efficacy grade (barnyard grass [5]): 5 (weed kill ratio 90% or more, (practically complete withering)); A: barnyard grass, weed kill grade (barnyard grass [6]): 5 (weed kill ratio 90% or more, (practically complete withering))
3 | CC(C)(C(=O)Nc1ccccn1)N1COCN(c2ccccc2)C1=O [A-2-01] | 3 (weed kill ratio 40% or more, less than 70%) | 4 (weed kill ratio 70% or more, less than 90%) | 0 (weed kill ratio 5% or less (practically no effect)) | 4 (weed kill ratio 70% or more, less than 90%) | 0 (weed kill ratio 5% or less (practically no effect)) | 3 (weed kill ratio 40% or more, less than 70%) | 4 (weed kill ratio 70% or more, less than 90%) | 2 (weed kill ratio 20% or more, less than 40%) | 2 (weed kill ratio 20% or more, less than 40%) | 3 (weed kill ratio 40% or more, less than 70%) | 4 (weed kill ratio 70% or more, less than 90%) | 5 (weed kill ratio 90% or more, (practically complete withering)) | 0 (weed kill ratio 5% or less (practically no effect)) | 2 (weed kill ratio 20% or more, less than 40%) | 5 (weed kill ratio 90% or more, (practically complete withering)) | 5 (weed kill ratio 90% or more, (practically complete withering)) | 5 (weed kill ratio 90% or more, (practically complete withering)) | 0 (weed kill ratio 5% or less (practically no effect)) | 5 (weed kill ratio 90% or more, (practically complete withering)) | 0 (weed kill ratio 5% or less (practically no effect)) | A (barnyard grass) weedkilling efficacy grade (barnyard grass [5]): 3 (weed kill ratio 40% or more, less than 70%); A: barnyard grass, weed kill grade (barnyard grass [6]): 5 (weed kill ratio 90% or more, (practically complete withering))
4 | CC(C)(C(=O)Nc1cc(Cl)cc(Cl)n1)N1COCN(c2ccccc2)C1=O [A-2-17, N-(4,6-dichloropyridin-2-yl)-2-methyl-2-(4-oxo-5-phenyl-1,3,5-oxadiazinan-3-yl) propionamide] | 5 (weed kill ratio 90% or more, (practically complete withering)) | 5 (weed kill ratio 90% or more, (practically complete withering)) | 5 (weed kill ratio 90% or more, (practically complete withering)) | 5 (weed kill ratio 90% or more, (practically complete withering)) | 5 (weed kill ratio 90% or more, (practically complete withering)) | 5 (weed kill ratio 90% or more, (practically complete withering)) |  |  | 5 (weed kill ratio 90% or more, (practically complete withering)) | 5 (weed kill ratio 90% or more, (practically complete withering)) | 5 (weed kill ratio 90% or more, (practically complete withering)) | 5 (weed kill ratio 90% or more, (practically complete withering)) |  | 5 (weed kill ratio 90% or more, (practically complete withering)) |  |  | 5 (weed kill ratio 90% or more, (practically complete withering)) | 4 (weed kill ratio 70% or more, less than 90%) | 5 (weed kill ratio 90% or more, (practically complete withering)) | 4 (weed kill ratio 70% or more, less than 90%) | 
